Measurements taken from patent US10670605B2, “Cysteine reactive probes and uses thereof” (The Scripps Research Institute, priority 2015, dated 2020).

Experiments:
Experiment in all cases: Competitive isoTOP-ABPP in situ (fragment-treated cells)
Assay type in all cases: cell-based
Details in all cases: 200 μM, insitu, 231
[1] = target: cysteines in MDA-MB-231 and Ramos cells (Homo sapiens, UniProt P38606)
[2] = target: T1, cysteines in MDA-MB-231 and Ramos cells (Homo sapiens, UniProt Q13428)
T1 sequence (Q13428 1-1488): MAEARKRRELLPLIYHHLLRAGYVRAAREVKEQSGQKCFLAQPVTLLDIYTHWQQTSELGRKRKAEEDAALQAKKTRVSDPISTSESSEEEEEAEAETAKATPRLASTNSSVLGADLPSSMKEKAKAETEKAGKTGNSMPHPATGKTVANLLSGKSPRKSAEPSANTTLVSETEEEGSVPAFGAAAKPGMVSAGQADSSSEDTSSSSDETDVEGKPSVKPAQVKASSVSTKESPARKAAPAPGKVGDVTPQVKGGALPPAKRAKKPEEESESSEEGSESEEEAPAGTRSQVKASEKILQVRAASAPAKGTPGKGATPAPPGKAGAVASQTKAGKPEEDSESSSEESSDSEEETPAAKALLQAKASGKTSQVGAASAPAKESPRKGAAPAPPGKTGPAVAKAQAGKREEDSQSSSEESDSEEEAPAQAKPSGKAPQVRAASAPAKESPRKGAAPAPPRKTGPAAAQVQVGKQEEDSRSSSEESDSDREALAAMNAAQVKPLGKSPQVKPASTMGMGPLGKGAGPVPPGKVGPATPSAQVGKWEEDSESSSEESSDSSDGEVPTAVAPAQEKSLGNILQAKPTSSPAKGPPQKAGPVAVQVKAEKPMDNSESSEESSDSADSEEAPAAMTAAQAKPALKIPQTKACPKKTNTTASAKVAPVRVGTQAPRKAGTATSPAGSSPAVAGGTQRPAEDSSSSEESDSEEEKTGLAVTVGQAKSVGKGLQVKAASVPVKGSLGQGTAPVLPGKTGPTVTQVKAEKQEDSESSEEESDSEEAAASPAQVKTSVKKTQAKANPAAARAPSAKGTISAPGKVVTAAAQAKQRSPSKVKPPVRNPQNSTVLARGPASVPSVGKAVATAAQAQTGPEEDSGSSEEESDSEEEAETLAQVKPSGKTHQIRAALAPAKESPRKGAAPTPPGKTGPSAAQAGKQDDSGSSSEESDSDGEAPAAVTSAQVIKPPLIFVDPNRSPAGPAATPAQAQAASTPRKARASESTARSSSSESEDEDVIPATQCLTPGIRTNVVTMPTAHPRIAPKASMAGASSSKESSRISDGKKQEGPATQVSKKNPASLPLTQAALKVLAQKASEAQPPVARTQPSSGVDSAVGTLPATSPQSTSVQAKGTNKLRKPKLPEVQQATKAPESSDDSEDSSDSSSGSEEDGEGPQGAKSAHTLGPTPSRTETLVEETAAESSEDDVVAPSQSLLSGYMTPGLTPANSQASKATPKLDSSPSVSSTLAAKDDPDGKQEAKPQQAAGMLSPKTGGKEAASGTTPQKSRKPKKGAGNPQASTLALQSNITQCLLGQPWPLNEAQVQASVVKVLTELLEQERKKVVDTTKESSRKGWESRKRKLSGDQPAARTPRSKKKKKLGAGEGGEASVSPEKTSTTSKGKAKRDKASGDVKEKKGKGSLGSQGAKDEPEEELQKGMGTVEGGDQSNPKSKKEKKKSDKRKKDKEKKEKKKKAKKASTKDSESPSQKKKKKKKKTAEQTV

[3] = target: cysteines in MDA-MB-231 and Ramos cells (Homo sapiens, UniProt Q15365)
cysteines in MDA-MB-231 and Ramos cells (Homo sapiens, UniProt Q15365), sequence (Q15365 whole entry): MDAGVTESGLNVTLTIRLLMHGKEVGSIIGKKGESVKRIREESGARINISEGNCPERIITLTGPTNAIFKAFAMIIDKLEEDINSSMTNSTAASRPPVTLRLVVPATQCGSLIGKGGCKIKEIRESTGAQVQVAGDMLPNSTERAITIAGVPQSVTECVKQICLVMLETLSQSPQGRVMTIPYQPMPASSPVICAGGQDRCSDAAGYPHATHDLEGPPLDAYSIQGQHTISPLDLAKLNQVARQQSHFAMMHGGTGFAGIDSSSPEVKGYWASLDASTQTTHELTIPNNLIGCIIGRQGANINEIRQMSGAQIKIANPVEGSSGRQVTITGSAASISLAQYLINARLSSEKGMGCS

[4] = target: cysteines in MDA-MB-231 and Ramos cells (Homo sapiens, UniProt Q8TAQ2)
cysteines in MDA-MB-231 and Ramos cells (Homo sapiens, UniProt Q8TAQ2), sequence (Q8TAQ2 whole entry): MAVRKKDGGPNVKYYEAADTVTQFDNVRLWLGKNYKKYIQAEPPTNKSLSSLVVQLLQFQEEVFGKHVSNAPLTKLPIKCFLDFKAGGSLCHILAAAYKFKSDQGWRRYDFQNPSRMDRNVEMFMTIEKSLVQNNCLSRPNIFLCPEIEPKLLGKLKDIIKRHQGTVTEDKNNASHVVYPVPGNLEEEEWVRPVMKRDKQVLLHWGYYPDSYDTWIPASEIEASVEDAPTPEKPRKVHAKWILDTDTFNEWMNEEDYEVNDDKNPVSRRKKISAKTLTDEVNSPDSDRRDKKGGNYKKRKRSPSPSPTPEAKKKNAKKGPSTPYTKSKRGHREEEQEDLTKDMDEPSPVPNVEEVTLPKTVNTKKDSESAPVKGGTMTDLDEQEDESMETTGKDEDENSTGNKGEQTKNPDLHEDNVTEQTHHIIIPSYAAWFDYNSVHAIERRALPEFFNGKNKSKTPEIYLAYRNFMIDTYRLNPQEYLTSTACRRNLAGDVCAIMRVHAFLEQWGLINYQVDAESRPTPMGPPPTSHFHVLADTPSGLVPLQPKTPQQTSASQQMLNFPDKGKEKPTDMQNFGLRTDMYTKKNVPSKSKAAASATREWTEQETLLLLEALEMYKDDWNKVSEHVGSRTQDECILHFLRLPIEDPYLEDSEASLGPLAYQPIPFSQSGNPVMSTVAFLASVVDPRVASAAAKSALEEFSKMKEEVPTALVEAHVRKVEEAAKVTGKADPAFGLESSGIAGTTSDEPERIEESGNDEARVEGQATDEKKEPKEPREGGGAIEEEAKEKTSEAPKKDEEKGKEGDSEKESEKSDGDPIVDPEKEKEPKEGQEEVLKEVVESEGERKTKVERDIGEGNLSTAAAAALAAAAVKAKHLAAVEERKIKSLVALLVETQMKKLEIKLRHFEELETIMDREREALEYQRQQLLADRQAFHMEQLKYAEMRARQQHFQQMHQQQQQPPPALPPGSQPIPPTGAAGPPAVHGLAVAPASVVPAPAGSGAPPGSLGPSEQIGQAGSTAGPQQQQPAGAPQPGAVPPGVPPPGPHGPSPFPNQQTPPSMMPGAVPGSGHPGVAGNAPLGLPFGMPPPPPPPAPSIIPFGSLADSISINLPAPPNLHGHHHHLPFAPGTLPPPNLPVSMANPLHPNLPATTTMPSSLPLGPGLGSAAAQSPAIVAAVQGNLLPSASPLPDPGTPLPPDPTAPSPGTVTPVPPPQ

[5] = target: T2, cysteines in MDA-MB-231 and Ramos cells (Homo sapiens, UniProt Q96T76)
T2 sequence (Q96T76 1-1030): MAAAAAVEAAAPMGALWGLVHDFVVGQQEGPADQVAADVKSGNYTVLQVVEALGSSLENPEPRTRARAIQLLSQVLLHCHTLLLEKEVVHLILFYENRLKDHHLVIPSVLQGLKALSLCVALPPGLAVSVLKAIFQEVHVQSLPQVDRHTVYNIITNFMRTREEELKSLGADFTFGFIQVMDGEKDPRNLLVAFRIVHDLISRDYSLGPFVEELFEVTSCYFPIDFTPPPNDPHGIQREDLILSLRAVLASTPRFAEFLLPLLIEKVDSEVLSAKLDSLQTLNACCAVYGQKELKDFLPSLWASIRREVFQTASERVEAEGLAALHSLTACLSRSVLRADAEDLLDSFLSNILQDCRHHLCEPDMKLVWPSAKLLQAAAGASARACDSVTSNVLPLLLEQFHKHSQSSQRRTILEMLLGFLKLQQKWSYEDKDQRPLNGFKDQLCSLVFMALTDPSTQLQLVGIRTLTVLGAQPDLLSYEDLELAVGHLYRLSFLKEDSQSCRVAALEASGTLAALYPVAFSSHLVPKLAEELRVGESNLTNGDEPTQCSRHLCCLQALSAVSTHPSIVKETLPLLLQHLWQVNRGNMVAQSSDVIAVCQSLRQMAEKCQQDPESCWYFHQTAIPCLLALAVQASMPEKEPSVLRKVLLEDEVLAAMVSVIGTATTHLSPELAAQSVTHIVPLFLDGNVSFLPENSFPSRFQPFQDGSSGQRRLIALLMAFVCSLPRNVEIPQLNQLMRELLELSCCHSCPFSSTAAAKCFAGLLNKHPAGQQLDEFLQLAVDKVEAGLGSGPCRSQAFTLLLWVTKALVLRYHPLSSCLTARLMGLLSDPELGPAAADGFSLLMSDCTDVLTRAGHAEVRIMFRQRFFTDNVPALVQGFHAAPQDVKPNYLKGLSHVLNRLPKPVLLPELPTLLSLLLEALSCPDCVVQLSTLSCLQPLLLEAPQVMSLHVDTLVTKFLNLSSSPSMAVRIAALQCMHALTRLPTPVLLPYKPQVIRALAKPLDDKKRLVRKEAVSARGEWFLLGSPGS

[6] = target: T3, cysteines in MDA-MB-231 and Ramos cells (Homo sapiens, UniProt Q9Y3D0)
T3 sequence (Q9Y3D0 1-163): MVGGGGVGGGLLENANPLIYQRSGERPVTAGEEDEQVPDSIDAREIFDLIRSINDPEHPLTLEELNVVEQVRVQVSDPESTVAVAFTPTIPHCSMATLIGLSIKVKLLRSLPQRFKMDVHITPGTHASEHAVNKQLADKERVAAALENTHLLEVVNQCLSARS

cysteines in MDA-MB-231 and Ramos cells (Homo sapiens, UniProt P38606), sequence (P38606 whole entry): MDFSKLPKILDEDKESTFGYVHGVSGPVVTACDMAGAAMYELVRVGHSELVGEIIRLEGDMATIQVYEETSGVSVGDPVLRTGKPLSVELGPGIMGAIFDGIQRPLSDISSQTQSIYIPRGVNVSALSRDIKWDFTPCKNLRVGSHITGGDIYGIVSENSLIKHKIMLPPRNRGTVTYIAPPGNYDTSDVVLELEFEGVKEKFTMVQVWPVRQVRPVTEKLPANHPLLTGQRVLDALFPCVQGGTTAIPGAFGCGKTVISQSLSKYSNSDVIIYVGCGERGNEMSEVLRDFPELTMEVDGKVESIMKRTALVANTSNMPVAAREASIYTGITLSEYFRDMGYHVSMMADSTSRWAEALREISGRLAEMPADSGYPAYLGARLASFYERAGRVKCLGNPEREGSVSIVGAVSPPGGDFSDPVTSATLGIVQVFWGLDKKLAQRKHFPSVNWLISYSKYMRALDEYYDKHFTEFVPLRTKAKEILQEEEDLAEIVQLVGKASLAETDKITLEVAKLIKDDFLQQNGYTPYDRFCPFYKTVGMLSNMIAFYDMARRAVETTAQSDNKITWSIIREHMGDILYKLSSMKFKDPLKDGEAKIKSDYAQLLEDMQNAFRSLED

| Compound | isoTOP-ABPP ratio P38606_C138 [1] | isoTOP-ABPP ratio Q13428_C38 [2] | isoTOP-ABPP ratio Q13428_C1298 [2] | isoTOP-ABPP ratio Q15365_C194 [3] | isoTOP-ABPP ratio Q8TAQ2_C145 [4] | isoTOP-ABPP ratio Q96T76_C819 [5] | isoTOP-ABPP ratio Q96T76_C848 [5] | isoTOP-ABPP ratio Q9Y3D0_C93 [6] |
| --- | --- | --- | --- | --- | --- | --- | --- | --- |
| CC(C)CCOCCNC(=O)CCl [compound 27] | 4.6 | 1.3 | 1.0 | 0.5 | 2.1 | 0.5 | 0.5 | 0.7 |
| C=CC(=O)Nc1cc(F)c(N2CCN(C(=O)OC(C)(C)C)CC2)c(F)c1 [compound 38] | 2.1 | 1.1 | 2.0 | 15 | 1.3 | 4.6 | – | 2.4 |
| Cc1ccc(C=C(C#N)C(=O)NCCN2CCOCC2)cc1 [compound 41] | 0.8 | 1.1 | 1.0 | 0.3 | 1.2 | 0.6 | 0.7 | 0.6 |
